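1) Cells in 96-well plates. 2) Compound, 48 h, 5 concentrations. 3) Linear interpolation between surrounding doses. 4) Unreached endpoint = highest concentration. TGI denotes the concentration required for complete inhibition of growth.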
Assays:
Test in all cases: DTP human tumour cell line panel, 48 h
TK-10 renal = tested on: TK-10 renal
MDA-MB-231 breast = tested on: MDA-MB-231 breast
KM12 colon = tested on: KM12 colon
T-47D breast = tested on: T-47D breast
SF-268 CNS = tested on: SF-268 CNS
SF-295 CNS = tested on: SF-295 CNS
OVCAR-3 ovarian = tested on: OVCAR-3 ovarian
SK-MEL-5 melanoma = tested on: SK-MEL-5 melanoma
RPMI-8226 leukemia = tested on: RPMI-8226 leukemia
U251 CNS = tested on: U251 CNS

Structure (SMILES) | TGI (TK-10 renal) | TGI (MDA-MB-231 breast) | TGI (KM12 colon) | TGI (T-47D breast) | TGI (SF-268 CNS) | TGI (SF-295 CNS) | TGI (OVCAR-3 ovarian) | TGI (SK-MEL-5 melanoma) | TGI (RPMI-8226 leukemia) | TGI (U251 CNS)
c1ccc(C(NC2=NCCO2)C2CC2)cc1 (stereo not given) | > 100 µM | > 100 µM | > 100 µM | > 100 µM | > 100 µM | > 100 µM | > 100 µM | > 100 µM | > 100 µM | > 100 µM
C#CCN(C(=O)C(F)(F)F)C(/C=C\C(=O)OC)(C(=O)OCC)C(=O)OCC | > 100 µM | > 100 µM | > 100 µM | > 100 µM | > 100 µM | > 100 µM | > 100 µM | > 100 µM | > 100 µM | > 100 µM
S=c1[nH]nc(Cn2c3ccc(Br)cc3c3nc4ccccc4nc32)o1 | > 100 µM | > 100 µM | > 100 µM | > 100 µM | > 100 µM | > 100 µM | > 73.7 µM | > 100 µM | 6.82 µM | > 92.4 µM
CN(CC(=O)Nc1ccccc1C(=O)O)c1ccccc1 | > 100 µM | > 100 µM | > 100 µM | > 100 µM | > 100 µM | > 100 µM | > 100 µM | > 100 µM | > 100 µM | > 100 µM
O=C(Nc1ccc(Cl)cc1Cl)C1C(=O)OC2(CCCCC2)OC1=O | > 100 µM | 33 µM | 28.4 µM | 62.2 µM | 50.5 µM | 19.4 µM | 16.1 µM | 22.1 µM | 35.7 µM | 54.1 µM
